Laboratory results published in paper doi:10.1101/2020.07.01.182642v1 (biorxiv, 2020).

Tests used:
Conditions in all cases: binder
STK39 = STK39 (Homo sapiens, UniProt Q9UEW8)
TTK = molecular target: T1, TTK (Homo sapiens, UniProt P33981)
T1 sequence (P33981 1-857): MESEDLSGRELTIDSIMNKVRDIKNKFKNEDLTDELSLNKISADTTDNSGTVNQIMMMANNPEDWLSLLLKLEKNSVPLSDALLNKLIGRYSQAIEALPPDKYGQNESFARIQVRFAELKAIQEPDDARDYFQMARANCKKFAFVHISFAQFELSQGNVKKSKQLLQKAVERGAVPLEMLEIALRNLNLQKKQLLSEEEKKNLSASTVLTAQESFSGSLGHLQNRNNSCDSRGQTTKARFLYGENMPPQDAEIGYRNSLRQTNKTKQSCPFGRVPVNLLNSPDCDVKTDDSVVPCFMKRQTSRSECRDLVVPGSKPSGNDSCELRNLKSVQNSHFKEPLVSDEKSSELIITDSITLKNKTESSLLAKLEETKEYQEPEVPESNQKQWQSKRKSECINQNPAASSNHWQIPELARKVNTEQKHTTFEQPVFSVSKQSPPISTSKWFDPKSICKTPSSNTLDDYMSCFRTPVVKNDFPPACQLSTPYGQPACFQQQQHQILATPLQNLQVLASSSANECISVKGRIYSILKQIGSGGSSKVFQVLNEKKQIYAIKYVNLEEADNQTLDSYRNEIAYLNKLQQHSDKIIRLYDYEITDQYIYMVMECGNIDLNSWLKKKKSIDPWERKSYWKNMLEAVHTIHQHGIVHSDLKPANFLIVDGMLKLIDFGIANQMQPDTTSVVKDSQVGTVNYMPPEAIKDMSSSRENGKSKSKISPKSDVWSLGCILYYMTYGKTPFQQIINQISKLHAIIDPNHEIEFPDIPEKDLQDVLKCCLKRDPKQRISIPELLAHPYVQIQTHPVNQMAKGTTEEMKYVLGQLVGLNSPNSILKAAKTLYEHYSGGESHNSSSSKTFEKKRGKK

PKMYT1 = molecular target: T2, PKMYT1 (Homo sapiens, UniProt Q99640)
T2 sequence (Q99640 1-499): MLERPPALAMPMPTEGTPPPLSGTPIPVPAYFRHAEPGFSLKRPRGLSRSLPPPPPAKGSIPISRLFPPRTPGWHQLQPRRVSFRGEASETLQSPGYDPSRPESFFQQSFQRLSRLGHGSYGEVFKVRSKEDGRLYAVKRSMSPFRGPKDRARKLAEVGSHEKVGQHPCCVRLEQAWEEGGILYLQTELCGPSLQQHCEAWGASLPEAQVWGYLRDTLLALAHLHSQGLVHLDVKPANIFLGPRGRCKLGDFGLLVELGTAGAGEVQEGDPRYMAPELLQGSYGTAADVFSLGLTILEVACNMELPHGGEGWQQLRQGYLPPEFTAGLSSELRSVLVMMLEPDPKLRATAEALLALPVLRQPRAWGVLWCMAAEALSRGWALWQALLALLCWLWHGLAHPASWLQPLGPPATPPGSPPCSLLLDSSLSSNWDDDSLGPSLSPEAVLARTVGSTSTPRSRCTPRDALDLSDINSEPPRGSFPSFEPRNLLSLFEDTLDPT

MAPK9 = MAPK9 (Homo sapiens, UniProt P45984)
PLK4 = molecular target: T3, PLK4 (Homo sapiens, UniProt O00444)
T3 sequence (O00444 1-970): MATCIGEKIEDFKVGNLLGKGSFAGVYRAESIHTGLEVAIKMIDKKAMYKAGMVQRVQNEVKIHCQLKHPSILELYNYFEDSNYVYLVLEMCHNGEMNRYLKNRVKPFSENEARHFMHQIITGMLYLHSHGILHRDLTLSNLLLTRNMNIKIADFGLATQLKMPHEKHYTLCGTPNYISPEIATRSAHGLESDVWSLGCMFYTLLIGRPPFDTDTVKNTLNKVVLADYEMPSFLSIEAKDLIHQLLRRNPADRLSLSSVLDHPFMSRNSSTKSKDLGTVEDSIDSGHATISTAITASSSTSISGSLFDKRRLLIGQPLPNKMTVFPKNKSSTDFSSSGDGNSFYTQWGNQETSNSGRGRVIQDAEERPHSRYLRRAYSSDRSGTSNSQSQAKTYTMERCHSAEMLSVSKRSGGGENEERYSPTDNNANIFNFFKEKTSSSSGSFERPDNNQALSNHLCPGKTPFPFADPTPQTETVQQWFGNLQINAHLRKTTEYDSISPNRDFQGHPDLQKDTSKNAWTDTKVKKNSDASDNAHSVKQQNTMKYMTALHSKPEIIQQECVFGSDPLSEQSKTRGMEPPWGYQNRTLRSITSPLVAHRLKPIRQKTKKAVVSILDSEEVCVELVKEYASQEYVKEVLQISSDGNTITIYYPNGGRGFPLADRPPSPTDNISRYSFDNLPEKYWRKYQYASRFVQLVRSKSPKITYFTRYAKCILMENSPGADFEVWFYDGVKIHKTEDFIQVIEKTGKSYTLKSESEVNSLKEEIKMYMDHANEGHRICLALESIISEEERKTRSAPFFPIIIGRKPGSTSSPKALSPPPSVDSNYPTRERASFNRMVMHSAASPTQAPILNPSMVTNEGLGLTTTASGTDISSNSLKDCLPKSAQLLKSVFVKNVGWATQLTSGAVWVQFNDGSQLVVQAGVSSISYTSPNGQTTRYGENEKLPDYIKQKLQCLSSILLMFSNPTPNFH

MAPK9, sequence (P45984 whole entry): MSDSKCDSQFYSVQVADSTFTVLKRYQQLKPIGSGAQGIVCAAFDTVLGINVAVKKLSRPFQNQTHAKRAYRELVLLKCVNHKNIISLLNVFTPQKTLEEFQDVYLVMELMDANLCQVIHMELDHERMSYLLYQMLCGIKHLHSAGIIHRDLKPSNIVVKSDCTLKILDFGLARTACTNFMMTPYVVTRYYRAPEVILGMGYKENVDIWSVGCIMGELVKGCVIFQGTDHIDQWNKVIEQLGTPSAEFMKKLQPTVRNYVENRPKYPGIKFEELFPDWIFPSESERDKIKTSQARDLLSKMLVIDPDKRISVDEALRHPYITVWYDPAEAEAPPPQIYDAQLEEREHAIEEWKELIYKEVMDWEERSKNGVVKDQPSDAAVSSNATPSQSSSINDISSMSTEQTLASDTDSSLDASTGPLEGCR

## CC(=O)c1cccc(-c2cnc3ccc(NCC4CC4)nn23)c1 [compound 1, K00135]
STK39
  ΔTm inhibitor 1: 0.8 °C
TTK
  ΔTm inhibitor 1: 2.7 °C
PKMYT1
  ΔTm inhibitor 1: 0.9 °C
MAPK9
  ΔTm inhibitor 1: 0.8 °C
PLK4
  ΔTm inhibitor 1: 2.6 °C

## CCN1/C(=C/C(C)=O)Sc2ccc(OC)cc21 [compound 2, TG003]
STK39
  ΔTm inhibitor 2: 0.5 °C
TTK
  ΔTm inhibitor 2: 0.5 °C
PKMYT1
  ΔTm inhibitor 2: -0.6 °C
MAPK9
  ΔTm inhibitor 2: 0.4 °C
PLK4
  ΔTm inhibitor 2: 0.2 °C

## Nc1nccc(-c2ccc3noc(-c4ccc(Cl)cc4)c3c2)n1 [compound 4, K00972]
STK39
  ΔTm inhibitor 4: 0.0 °C
TTK
  ΔTm inhibitor 4: 1.7 °C
PKMYT1
  ΔTm inhibitor 4: 0.1 °C
MAPK9
  ΔTm inhibitor 4: 0.9 °C
PLK4
  ΔTm inhibitor 4: 0.4 °C
